# According to patent US5283193A, “Process for producing optically active α-substituted organic acid and microorganism and enzyme used therefor” (Asahi Kasei Kogyo K.K., priority 1988, dated 1994):
# Tested on: Nitrilase isolated from Acinetobacter sp. AK 226 strain
# Assay: Substrate specificity of purified nitrilase (hydrolysis of nitriles to organic acid and ammonia)
# Conditions: not given
row,Compound,Relative activity
1,N#Cc1ccccc1F [o-Fluorobenzonitrile],50.4 ×10^2%
2,CC(C#N)c1ccccc1 (stereo not drawn) [α-Phenylpropionitrile],0.534 ×10^2%
3,CCCCCC#N [n-Capronitrile],5.93 ×10^2%
4,Cc1cccc(C#N)c1 [m-Tolunitrile],74.8 ×10^2%
5,N#Cc1cccc([N+](=O)[O-])c1 [m-Nitrobenzonitrile],47.6 ×10^2%
6,CC#N [Acetonitrile],45.3 ×10^2%
7,N#CC(N)c1ccccc1 (stereo not shown) [2-Phenylglycinonitrile],0.000 ×10^2%
8,N#CCO [Hydroxyacetonitrile],11.4 ×10^2%
9,Thiopheneacetonitrile,45.5 ×10^2%
10,N#Cc1cccc(C#N)c1 [m-Phthalonitrile],80.7 ×10^2%
11,N#CCCl [Chloroacetonitrile],108 ×10^2%
12,Cc1ccccc1C#N [o-Tolunitrile],0.743 ×10^2%
13,CCCC#N [n-Butyronitrile],17.4 ×10^2%
14,"N#CC(Br)CBr (stereo not shown) [2,3-Dibromopropionitrile]",90.3 ×10^2%
15,C=C(C)C#N [Methacrylonitrile],68.4 ×10^2%
16,N#Cc1cccc(Cl)c1 [m-Chlorobenzonitrile],68.9 ×10^2%
17,N#CCCCC#N [Glutaronitrile],50.9 ×10^2%
18,CC(C)CCC#N [iso-Capronitrile],8.12 ×10^2%
19,C=CC#N [Acrylonitrile],144 ×10^2%
20,N#Cc1cccnc1 [Nicotinonitrile],52.7 ×10^2%
21,N#Cc1ccc(F)cc1 [p-Fluorobenzonitrile],83.9 ×10^2%

# Same assay, conditions: racemic substrate
row,Compound,Reaction rate with the S isomer compared with the R isomer
1,CC(C)Cc1ccc(C(C)C#N)cc1 (stereo not shown),much higher
